For assay [1], the target named is T1, ZGAL_4655 (Zobellia galactanivorans, UniProt G0L4M6).
T1 construct: gene bgaF
T1 sequence (G0L4M6 18-845): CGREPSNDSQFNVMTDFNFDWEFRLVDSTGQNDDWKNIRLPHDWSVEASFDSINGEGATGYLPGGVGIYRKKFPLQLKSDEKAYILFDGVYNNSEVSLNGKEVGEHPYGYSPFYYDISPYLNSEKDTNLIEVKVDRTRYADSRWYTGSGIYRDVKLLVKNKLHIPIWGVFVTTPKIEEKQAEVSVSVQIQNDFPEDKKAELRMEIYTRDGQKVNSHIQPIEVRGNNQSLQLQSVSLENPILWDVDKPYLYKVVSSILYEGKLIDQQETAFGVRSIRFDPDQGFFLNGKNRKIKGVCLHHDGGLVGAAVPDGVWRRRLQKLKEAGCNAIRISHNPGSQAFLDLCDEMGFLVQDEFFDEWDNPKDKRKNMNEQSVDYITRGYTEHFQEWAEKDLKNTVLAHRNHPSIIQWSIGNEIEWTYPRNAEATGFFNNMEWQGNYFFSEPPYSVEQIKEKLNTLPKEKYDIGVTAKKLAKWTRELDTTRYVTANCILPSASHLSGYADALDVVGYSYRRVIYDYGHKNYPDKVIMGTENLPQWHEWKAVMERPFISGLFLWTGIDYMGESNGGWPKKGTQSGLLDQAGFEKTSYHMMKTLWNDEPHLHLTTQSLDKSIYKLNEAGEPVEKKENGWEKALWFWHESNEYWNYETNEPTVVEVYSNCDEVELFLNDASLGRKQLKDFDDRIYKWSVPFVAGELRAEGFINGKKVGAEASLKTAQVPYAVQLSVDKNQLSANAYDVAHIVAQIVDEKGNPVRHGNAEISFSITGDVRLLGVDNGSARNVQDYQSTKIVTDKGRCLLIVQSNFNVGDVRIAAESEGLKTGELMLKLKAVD
As to the kind of experiment: beta-galactosidase activity on artificial substrate. Type of assay: biochemical.

The target of assay [2] is T2, ZGAL_3633 (Zobellia galactanivorans, UniProt G0L1N0).
T2 construct: gene bgaB
T2 sequence (G0L1N0 21-825): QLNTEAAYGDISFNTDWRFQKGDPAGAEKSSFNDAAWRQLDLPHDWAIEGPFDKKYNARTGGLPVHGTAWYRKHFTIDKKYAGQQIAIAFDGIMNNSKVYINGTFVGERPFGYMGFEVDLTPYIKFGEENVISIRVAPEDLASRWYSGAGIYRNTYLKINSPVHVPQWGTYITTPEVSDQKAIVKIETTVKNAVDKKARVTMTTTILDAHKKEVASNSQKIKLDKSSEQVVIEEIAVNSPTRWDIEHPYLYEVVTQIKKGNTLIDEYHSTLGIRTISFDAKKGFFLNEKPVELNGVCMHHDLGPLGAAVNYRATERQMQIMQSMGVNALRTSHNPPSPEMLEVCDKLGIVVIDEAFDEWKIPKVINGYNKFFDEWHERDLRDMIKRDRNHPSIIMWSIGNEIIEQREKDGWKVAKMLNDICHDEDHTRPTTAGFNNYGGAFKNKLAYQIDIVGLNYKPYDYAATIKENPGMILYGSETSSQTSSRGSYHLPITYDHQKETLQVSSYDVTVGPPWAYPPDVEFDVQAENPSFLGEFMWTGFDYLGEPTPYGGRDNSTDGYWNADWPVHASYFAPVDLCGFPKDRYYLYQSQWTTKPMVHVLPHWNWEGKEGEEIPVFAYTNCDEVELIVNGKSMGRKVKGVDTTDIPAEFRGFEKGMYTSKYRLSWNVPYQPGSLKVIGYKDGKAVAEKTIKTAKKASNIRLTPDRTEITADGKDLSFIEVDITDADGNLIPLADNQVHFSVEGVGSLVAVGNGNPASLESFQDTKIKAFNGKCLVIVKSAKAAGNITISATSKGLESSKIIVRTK
The description is as above. Type of assay: biochemical.

From paper PMC5698469, “Carrageenan catabolism is encoded by a complex regulon in marine heterotrophic bacteria” (Nature Communications, 2017) come the findings set out here.

Regarding `O=[N+]([O-])c1ccc(O[C@@H]2O[C@H](CO)[C@H](O)[C@H](O)[C@H]2O)cc1` [pNP-beta-D-galactopyranoside], the “beta-galactosidase activity on artificial substrate” value in assay [1] and in assay [2] was “recombinant enzymes displayed beta-galactosidase activity on an artificial substrate (pNP-beta-D-galactopyranoside” each time.
